Experiments:
BRD4-1 = BRD4-1 (Homo sapiens (Human), UniProt O60885); assay: BRD4 region 1 (BRD4-1) inhibition; type: biochemical
BRD4-2 = BRD4-2 (Homo sapiens (Human), UniProt O60885); assay: BRD4 region 2 (BRD4-2) inhibition; type: biochemical
PI3Kβ = PI3Kβ (Homo sapiens (Human), UniProt P42338); assay: PI3K beta isoform inhibition; type: biochemical
PI3Kδ = PI3Kδ (Homo sapiens (Human), UniProt O00329); assay: PI3K delta isoform inhibition; type: biochemical
From the text: Inhibitory activity can be determined routinely using known methods and also front commercial vendors offering this service for kinases and bromodomain proteins. […] In vivo, PI3K inhibition can be determined from target tissue biopsies by standard tissue processing to disrupt cells and then performing Western Blot analysis to determine the presence or absence of pAKT (substrate of PI3K) relative to a control sample. The activity of a compound of the invention as an inhibitor of a bromodomain-containing protein, such as a BET protein, such as BRD2, BRD3, BRD4, and/or BRDT, or an isoform or mutant thereof may be determined in vitro, in vivo, or in a cell line. In vitro assays include assays that determine inhibition of bromodomain-containing proteins. Alternatively, inhibitor binding may be determined by running a competition experiment where a provided compound is incubated with a bromodomain-containing protein, such as a BET protein bound to known ligands, labeled or unlabeled. For example, bromodomain inhibition can be determined in vitro using Alpha Screen Technology (http://www.reactionbiology.com/webapps/site/NewsPDFs/Bromodomain%20Assay%20Platform%20for%20Drug%/20Screening%20and%20Discovery.pdf). In vivo bromodomain inhibition can be determined indirectly by evaluating the amount of protect present of proteins whose genes' transcription is influenced or controlled by the bromodomain protein, for example, the MYCN protein transcription is controlled by BRD4 (J. E. Delmore et al., Cell 2011, 146, 904-917; A. Puissant, Cancer Discov. 2013, 3, 308-323). Bromodomain inhibition may also be predicted by in silico modeling as described below in the Examples.
(§1) Several TP Scaffold compounds (structures shown in FIG. 2 and Table 3) were tested for inhibition activity against isoforms of PI3K (alpha, beta, gamma, and delta isoforms) and the bromodomain protein BRD4 at regions 1 (BRD4-1) and 2 (BRD4-2).

PI3Kγ = PI3Kγ (Homo sapiens (Human), UniProt P48736); assay: PI3K gamma isoform inhibition; type: biochemical
Sequence of PI3Kγ (P48736 whole entry, canonical isoform): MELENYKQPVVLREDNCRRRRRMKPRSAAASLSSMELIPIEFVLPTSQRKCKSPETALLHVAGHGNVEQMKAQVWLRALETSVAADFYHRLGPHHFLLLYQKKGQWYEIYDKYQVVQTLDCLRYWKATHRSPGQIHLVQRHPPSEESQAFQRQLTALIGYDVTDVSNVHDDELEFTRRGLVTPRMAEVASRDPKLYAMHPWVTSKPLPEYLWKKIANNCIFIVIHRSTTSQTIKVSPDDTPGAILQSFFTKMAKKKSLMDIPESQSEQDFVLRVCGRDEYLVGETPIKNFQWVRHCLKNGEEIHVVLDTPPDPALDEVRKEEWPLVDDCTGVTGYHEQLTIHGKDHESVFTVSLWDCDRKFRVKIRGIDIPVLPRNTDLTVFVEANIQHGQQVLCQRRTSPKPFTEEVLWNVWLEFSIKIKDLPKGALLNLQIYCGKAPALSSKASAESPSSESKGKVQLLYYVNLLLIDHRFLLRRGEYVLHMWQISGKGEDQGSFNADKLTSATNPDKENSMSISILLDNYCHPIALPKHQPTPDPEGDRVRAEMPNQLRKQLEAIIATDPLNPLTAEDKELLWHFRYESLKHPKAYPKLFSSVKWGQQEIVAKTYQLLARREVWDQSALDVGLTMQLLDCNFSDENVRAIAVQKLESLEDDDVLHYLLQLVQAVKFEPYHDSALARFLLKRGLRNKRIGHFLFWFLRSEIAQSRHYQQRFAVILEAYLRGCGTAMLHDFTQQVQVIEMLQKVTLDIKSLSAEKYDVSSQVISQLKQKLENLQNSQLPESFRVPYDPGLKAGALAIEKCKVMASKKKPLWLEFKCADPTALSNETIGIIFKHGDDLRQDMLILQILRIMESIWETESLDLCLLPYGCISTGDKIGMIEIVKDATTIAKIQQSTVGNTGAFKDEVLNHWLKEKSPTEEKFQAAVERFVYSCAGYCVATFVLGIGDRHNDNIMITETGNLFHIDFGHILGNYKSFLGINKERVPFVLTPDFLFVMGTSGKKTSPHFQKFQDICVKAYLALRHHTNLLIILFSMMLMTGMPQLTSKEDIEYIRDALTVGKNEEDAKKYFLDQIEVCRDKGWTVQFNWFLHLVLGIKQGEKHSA

BRD4 = BRD4 (Homo sapiens, UniProt O60885); assay: BRD4 inhibition assay (region not distinguished); type: biochemical; settings: BRD4 regions 1 and 2
SKNBE (2) cells = assay: Western blot of p-AKT and N-MYC in SKNBE(2) cells; type: cell-based, human; settings: 24 hrs treatment, IGF stimulated
Protocol: Cells were stimulated with 50 ng/ml IGF for 30 min and used for lysate preparation. Proteins were quantitated by the BCA protein assay (Pierce). Equal amounts of protein were resolved by polyacrylamide gels, transferred to nitrocellulose membrane and probed by Western blot with the following primary antibodies: p-AKT(Ser473), API (Cell Signaling Technologies), N-MYC, CyclinD1 and β-actin (Santa Cruz Biotechnology).

[1] = tested on: MYCN amplified SKNBE(2) cells; assay: Brd4 chromatin precipitation, quantitative PCR of MYCN promoter region; type: cell-based, human; settings: 24 hours exposure
Protocol: MYCN amplified SKNBE(2) cells were exposed to inhibitors for 24 hours then chromatin was precipitated with Brd4 (rabbit polyclonal antibody) along with rabbit IgG as a negative control (IgG). Precipitated chromatin was analyzed for the MYCN gene (2 sites within the MYCN promoter region) by quantitative PCR and enrichment is shown as the percentage of total input DNA (FIG. 4). The negative control region primers amplify within a gene desert region approximately 1 Mb away from MYCN (MYC-N NR). Error bars represent ±SEM of triplicate data. P<0.05 as compared to positive control (paired t-test). Positive control: No inhibitor; IP with BRD4 antibody, Negative Control: No inhibitor, IP with rabbit IgG.

Panc02 = assay: Orthotopic pancreatic model of spontaneous metastasis; type: in vivo, WT mice; settings: 50 mg/kg, three times a week
Protocol: Panc02 (1×10^6) tumor cells were injected into the pancreas of WT mice (n=18). After 20 days, mice were randomized into two groups. One group was treated with DMSO (control) and the other group was treated with 50 mg/kg of SF2523, three tunes a week. Tumors were removed 35 days after tumor implantation. Values are mean±SEM (n=8 in each gp; P<0.01; pair wise two-sided Student's t test). […] Values are mean±SEM (n=7; P<0.01; pair wise two-sided. Student's t test). The data are representative of three independent experiments performed.

IMR32 cell line = assay: Real-time PCR of N-myc and Cyclin D1 mRNA; type: cell-based; settings: 5 μM, 24 hrs
Protocol: Cells were stimulated with 50 ng/ml IGF and used for RNA Isolation after 24 hrs of treatment with various inhibitors. The results for N-Myc are shown in FIG. 7A and for Cyclin D1 in FIG. 7B.
The experiment of Example 7 was repeated in the IMR32 cell line (MYCN amplified neuroblastoma cancer cell line).

B16 melanoma cells = assay: Mouse model of melanoma metastasis, B16 F10 luciferase cells by tail vein; type: in vivo, WT mice; settings: 50 mg/kg every other day, 15 days
From the text: The luciferase signal was monitored every third day by rejecting luciferin, until the lungs were harvested on day 15 (n=5). […] Lungs extracted from these animals are shown below the luciferase imaged pictures supporting the repression of tumor growth in Cmpd 28-treated mice.

PC3 = assay: Cellular PI3K inhibitory activity, pAKT Ser473 ELISA; type: cell-based; settings: Homo sapiens, PC-3; IGF-1 stimulated, pAKT serine 473
Protocol: Biological testing of compounds of Formula I. Representative compounds of the invention were tested for cellular PI3K inhibitory activity (as measured by the most robust marker of pathway activity pAKT) in a prostate cancer cell line (PC3), which is summarized in Table 3. […] After this time period the cells were serum starved for 5 hours followed by application of the test compound. Test compound was added as a DMSO (dimethyl sulfoxide) solution such that the final DMSO concentration in the cell media was less than or equal to 0.2% by volume. After 30 minutes of exposure the growth factor stimulant, human IGF-1 (Pepro Tech, Inc., Rocky Hill, N.J., Cat. #100-11), was added in each well. After 30 minutes of IGF-1 exposure, cells were removed the media and cell lysates were prepared using RIPA Lysis buffer (Upstate, Lake Placid, N.Y., Cat. #20-188), keeping on ice. The pAKT serine 473 level was measured in duplicate samples of the cell lysates using commercially available assays such as the Pathscan® Sandwich ELISA kit for Ser473 pAKT (Cell Signaling, Danvers, Mass. Cat. #7160). A SpectraMax Plus spectrophotometric plate reader (Molecular Devices, Sunnydale, Calif.) was used to measure the optical density signal for pAKT at 450 nm (OD450 nm). The pAKT OD450 nm readings were normalized by total protein amount in the cell lysates determined by standard methods.

NB9464 [2] = assay: NB9464 neuroblastoma tumor growth in nude mice; settings: 50 mg/kg, 3 days a week for 1.5 weeks, intra-peritoneal
From the text: MYCN-overexpressing murine neuroblastoma cells (NB9464) were transplanted into nude mice, grown lot 24 days and randomized into two groups.

PI3Kα = PI3Kα (Homo sapiens (Human), UniProt P42336); assay: PI3K alpha isoform inhibition; type: biochemical
Sequence of PI3Kα (P42336 whole entry, canonical isoform): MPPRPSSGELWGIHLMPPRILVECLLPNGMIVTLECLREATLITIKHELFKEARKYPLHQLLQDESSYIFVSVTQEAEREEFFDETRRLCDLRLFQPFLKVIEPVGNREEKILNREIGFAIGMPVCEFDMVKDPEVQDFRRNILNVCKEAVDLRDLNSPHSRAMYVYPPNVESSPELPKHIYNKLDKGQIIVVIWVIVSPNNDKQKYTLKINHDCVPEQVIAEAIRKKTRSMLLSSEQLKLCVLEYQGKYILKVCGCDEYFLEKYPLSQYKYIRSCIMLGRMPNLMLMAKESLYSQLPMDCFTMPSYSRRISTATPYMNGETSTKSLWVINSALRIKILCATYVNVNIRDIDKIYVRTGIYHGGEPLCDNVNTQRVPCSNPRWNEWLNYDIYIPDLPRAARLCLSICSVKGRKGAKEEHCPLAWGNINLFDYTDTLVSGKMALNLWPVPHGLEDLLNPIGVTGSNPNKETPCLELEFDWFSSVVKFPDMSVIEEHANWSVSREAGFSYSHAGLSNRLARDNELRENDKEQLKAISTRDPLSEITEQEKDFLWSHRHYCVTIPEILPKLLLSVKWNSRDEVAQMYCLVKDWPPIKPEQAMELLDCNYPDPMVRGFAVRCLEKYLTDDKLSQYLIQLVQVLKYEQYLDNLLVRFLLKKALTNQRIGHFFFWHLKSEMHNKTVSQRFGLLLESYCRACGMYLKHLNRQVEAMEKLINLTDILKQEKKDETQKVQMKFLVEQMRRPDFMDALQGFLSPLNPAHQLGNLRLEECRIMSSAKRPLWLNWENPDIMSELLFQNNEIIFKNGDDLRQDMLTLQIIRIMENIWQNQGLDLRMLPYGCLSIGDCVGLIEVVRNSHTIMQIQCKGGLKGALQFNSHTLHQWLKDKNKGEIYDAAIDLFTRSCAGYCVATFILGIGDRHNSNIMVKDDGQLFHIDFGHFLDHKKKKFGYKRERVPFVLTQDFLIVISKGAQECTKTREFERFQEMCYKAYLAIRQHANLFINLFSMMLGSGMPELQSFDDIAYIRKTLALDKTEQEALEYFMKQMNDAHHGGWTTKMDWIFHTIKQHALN
Sequence of PI3Kα (P27986 whole entry partner, canonical isoform): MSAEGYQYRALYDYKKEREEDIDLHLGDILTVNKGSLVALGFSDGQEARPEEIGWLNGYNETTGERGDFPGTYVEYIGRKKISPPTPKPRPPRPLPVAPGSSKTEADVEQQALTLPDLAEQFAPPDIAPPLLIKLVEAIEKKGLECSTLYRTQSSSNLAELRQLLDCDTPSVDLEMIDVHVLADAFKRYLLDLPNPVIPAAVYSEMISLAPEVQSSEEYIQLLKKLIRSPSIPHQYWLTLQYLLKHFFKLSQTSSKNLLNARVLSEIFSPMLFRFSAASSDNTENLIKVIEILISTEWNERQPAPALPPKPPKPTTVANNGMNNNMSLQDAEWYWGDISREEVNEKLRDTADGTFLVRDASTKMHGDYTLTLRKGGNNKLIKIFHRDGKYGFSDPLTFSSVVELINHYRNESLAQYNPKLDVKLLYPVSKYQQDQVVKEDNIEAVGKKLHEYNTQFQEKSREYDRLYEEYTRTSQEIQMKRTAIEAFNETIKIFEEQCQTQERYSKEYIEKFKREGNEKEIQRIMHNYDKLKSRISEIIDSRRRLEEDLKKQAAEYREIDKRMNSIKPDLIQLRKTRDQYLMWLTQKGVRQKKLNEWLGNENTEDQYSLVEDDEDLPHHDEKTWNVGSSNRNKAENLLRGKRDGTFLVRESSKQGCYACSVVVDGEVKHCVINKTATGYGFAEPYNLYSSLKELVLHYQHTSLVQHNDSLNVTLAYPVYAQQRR

SKNBE(2) = assay: Cytotoxicity / proliferation study, alone and in combination; type: cell-based, human
NB9464 [3] = assay: as above; type: cell-based, murine
[4] = tested on: MYCN-dependent MB patient derived xenograft (PDX) cell line; assay: as above; type: cell-based
PI3K = PI3K inhibition (isoform not distinguished); type: biochemical
Protocol: as §1
All thienopyranone-based compounds tested inhibited either PI3K or BRD4 or both PI3K and BRD4. […] JQ1+, a known bromodomain inhibitor, was used as reference compound.

Sequence of PI3Kδ (O00329 whole entry, canonical isoform): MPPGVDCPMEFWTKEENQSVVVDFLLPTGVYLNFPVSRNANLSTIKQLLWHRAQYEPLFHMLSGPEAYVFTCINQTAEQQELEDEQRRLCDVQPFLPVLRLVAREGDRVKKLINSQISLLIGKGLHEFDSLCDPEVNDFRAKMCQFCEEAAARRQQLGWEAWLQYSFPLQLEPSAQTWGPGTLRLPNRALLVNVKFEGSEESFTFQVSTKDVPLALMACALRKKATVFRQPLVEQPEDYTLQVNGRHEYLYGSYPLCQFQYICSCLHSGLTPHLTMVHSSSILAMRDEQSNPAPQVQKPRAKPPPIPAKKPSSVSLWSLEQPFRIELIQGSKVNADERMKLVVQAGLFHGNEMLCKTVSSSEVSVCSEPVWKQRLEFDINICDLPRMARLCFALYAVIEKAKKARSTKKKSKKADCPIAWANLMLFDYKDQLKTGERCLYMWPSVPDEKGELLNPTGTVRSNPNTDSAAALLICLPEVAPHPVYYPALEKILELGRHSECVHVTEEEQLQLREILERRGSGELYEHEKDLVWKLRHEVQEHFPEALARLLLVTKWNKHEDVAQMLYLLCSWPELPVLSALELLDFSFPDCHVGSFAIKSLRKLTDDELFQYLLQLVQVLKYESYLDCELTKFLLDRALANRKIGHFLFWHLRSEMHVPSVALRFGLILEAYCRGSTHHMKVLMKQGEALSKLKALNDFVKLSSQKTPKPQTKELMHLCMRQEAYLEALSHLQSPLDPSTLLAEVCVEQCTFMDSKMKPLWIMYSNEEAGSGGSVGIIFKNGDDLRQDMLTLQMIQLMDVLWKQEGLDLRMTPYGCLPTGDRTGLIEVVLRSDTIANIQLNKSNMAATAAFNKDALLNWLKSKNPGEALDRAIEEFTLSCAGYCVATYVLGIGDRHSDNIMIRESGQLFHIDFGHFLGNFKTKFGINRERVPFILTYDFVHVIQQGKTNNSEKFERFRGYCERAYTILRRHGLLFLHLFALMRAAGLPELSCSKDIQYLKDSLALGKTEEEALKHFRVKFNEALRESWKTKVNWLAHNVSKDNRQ
Sequence of PI3Kδ (P27986 whole entry partner, canonical isoform): as the sequence (P27986 whole entry partner, canonical isoform) above
Sequence of PI3Kβ (P42338 whole entry, canonical isoform): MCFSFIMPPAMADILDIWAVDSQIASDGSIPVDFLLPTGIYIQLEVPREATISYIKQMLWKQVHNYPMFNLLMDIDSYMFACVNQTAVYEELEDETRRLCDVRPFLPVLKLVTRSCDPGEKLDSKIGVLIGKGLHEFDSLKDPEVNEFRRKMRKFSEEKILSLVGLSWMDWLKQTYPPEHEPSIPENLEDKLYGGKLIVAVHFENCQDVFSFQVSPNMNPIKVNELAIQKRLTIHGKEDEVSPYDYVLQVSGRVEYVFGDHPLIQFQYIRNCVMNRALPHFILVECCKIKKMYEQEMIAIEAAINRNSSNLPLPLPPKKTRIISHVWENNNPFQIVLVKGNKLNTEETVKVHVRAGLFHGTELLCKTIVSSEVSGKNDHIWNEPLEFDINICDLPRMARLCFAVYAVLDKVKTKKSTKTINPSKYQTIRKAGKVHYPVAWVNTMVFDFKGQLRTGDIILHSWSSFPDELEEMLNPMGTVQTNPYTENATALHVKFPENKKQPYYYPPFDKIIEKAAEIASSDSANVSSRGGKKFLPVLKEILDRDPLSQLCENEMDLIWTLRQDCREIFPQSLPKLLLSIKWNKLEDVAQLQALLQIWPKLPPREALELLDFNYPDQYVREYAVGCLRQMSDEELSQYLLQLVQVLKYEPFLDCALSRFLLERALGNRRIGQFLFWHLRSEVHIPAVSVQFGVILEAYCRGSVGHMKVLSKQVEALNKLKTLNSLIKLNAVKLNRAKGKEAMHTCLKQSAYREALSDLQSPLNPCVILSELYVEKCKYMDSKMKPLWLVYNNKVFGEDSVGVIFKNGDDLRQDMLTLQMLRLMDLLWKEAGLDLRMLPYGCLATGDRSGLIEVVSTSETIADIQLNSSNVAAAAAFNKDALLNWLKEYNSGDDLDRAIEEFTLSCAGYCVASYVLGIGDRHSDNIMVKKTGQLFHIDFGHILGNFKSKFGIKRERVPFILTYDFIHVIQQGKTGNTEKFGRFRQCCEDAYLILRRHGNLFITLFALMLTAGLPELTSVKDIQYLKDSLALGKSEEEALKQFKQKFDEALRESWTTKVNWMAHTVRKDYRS
Sequence of PI3Kβ (P27986 whole entry partner, canonical isoform): as the sequence (P27986 whole entry partner, canonical isoform) above

O=c1cc(N2CCOCC2)oc2c(-c3ccc4c(c3)OCCO4)csc12 [Cmpd 28] showed an IC50 (BRD4-1) of 241 nM, an IC50 (BRD4-2) of 1550 nM and an IC50 (PI3Kβ) of 214 nM. For the same compound, the IC50 (PI3Kδ) was 960 nM, the IC50 (PI3Kγ) was 158 nM and the “BRD4 inhibition” value (BRD4) was “showed activity”. The “MYCN protein quantity, Western blot” value (SKNBE (2) cells) was “decreased”, the “pAKT, Western blot” value (SKNBE (2) cells) was “decreased” and the “MYCN expression (Brd4 ChIP, MYCN promoter)” value [1] was “significantly repressed MYCN expression”. The spontaneous metastasis (Panc02) was “blocks spontaneous metastasis”, the “Cyclin D1 mRNA expression” value (IMR32 cell line) was “reducing mRNA expression” and the “MYCN mRNA expression” value (IMR32 cell line) was “inhibits MYCN expression”. For the same compound, the “luciferase bioimaging of cancer cells” value (B16 melanoma cells) was “little evidence of the presence of cancer cells”, the “reduction in metastatic nodules” value (B16 melanoma cells) was 60% and the IC50 (PC3) was 161 to 440 nM. For the same compound, the “tolerability / body weight” value (NB9464 [2]) was “well tolerated (no body weight loss” and the “tumor growth compared to vehicle” value (NB9464 [2]) was “significantly blocked tumor growth”.

Cc1sc2c(c1C)C(c1ccc(Cl)cc1)=N[C@@H](CC(=O)OC(C)(C)C)c1nnc(C)n1-2 [JQ-1] gave an IC50 (PI3Kα) of over 50000 nM, an IC50 (PI3Kδ) of over 50000 nM and an IC50 (PI3Kγ) of over 50000 nM. The IC50 (SKNBE(2)) was 1900 nM, the IC50 (NB9464 [3]) was 1600 nM and the IC50 [4] was 2200 nM. For the same compound, the “PI3K inhibition” value (PI3K) was “does not inhibit PI3K”, the “MYCN protein quantity, Western blot” value (SKNBE (2) cells) was “inhibited only MYCN quantities” and the “MYCN expression (Brd4 ChIP, MYCN promoter)” value [1] was “significantly repressed MYCN expression”.

Source: patent publication US9505780B2, “Thienopyranones as kinase and epigenetic inhibitors” (SignalRx Pharmaceuticals, Inc., priority 2014, dated 2016)
